Activity calls are given as the source filed them.
Key:
Mus musculus [1] = organism: Mus musculus; test: Neuroprotection activity in alpha-synuclein preformed fibril-induced C57BL/6J mouse PD model assessed as decrease in pS129-alpha-synuclein in SNpc TH positive neurons in brain at 1 uM treated after 3 month PPF challenge measured after 14 days by Western blot analysis; type: functional, organism-based; conditions: time 14.0 day
Mus musculus [2] = organism: Mus musculus; test: Neuroprotection activity in alpha-synuclein preformed fibril-induced C57BL/6J mouse PD model assessed as decrease in phosphorylated […] level in brain at 1 uM treated after 3 month PPF challenge measured after 14 days by Western blot analysis; type: functional, organism-based; conditions: time 14.0 day
SH-SY5Y [3] = test: Agonist activity at Nur77-c-Abl-PHB2 pathway in alpha-synuclein preformed fibril-induced human SH-SY5Y cells assessed as reduction in PHB2 phosphorylation at 1 uM treated for 24 hrs by Western blot analysis; type: cell-based; conditions: filed as agonist
SH-SY5Y [4] = test: Agonist activity at Nur77-c-Abl-PHB2 pathway in alpha-synuclein preformed fibril-induced human SH-SY5Y cells assessed as translocation of Nur77 into mitochondria at 1 uM treated for 24 hrs by Western blot analysis; conditions: filed as agonist
SH-SY5Y [5] = test: Agonist activity at Nur77 in alpha-synuclein preformed fibril-induced human SH-SY5Y cells assessed as reduction in alpha-synuclein aggregation at 1 uM treated for 24 hrs by Western blot analysis; type: cell-based; conditions: filed as agonist
SH-SY5Y [6] = test: Agonist activity at Nur77-c-Abl-PHB2 pathway in alpha-synuclein preformed fibril-induced human SH-SY5Y cells assessed as interaction with c-Abl at 1 uM treated for 24 hrs by Co-immunoprecipitation (Co-IP) assay; type: cell-based; conditions: filed as agonist
Mus musculus [7] = organism: Mus musculus; test: Neuroprotection activity in alpha-synuclein preformed fibril-induced C57BL/6J mouse PD model assessed as increase in LC3 level in brain at 1 uM treated after 3 month PPF challenge measured after 14 days by Western blot analysis; type: functional, organism-based; conditions: time 14.0 day
SH-SY5Y [8] = test: Agonist activity at Nur77-c-Abl-PHB2 pathway in alpha-synuclein preformed fibril-induced human SH-SY5Y cells assessed as decrease in p62 expression at 1 uM treated for 24 hrs by Western blot analysis; type: cell-based; conditions: filed as agonist
SH-SY5Y [9] = test: Agonist activity at Nur77-c-Abl-PHB2 pathway in alpha-synuclein preformed fibril-induced human SH-SY5Y cells assessed as increase in PHB2/LC3 interaction at 1 uM treated for 24 hrs by Co-immunoprecipitation (Co-IP) assay; type: cell-based; conditions: filed as agonist
SH-SY5Y [10] = test: Agonist activity at Nur77-c-Abl-PHB2 pathway in alpha-synuclein preformed fibril-induced human SH-SY5Y cells assessed as increase in ratio of LC3-II/LC3I at 1 uM treated for 24 hrs by Western blot analysis; type: cell-based; conditions: filed as agonist
Mus musculus [11] = organism: Mus musculus; test: Neuroprotection activity in alpha-synuclein preformed fibril-induced C57BL/6J mouse PD model assessed as decrease in p62 expression in brain at 1 uM treated after 3 month PPF challenge measured after 14 days by Western blot analysis; type: functional, organism-based; conditions: time 14.0 day
Mus musculus [12] = organism: Mus musculus; test: Neuroprotection activity in alpha-synuclein preformed fibril-induced C57BL/6J mouse PD model assessed as rescue of DA neurons in brain by measuring TH positive neurons at 1 uM treated after 3 month PPF challenge measured after 14 days by immunohistochemistry; type: functional, organism-based; conditions: time 14.0 day
Mus musculus [13] = organism: Mus musculus; test: Neuroprotection activity in alpha-synuclein preformed fibril-induced C57BL/6J mouse PD model assessed as decrease in phosphorylated c-Abl level in brain at 1 uM treated after 3 month PPF challenge measured after 14 days by Western blot analysis; type: functional, organism-based; conditions: time 14.0 day
SH-SY5Y [14] = test: Agonist activity at Nur77-c-Abl-PHB2 pathway in alpha-synuclein preformed fibril-induced human SH-SY5Y cells assessed as decrease in c-Abl phosphorylation at 1 uM treated for 24 hrs by Western blot analysis; type: cell-based; conditions: filed as agonist

Measured: Activity

CCCCCCCC(=O)c1c(O)cc(O)cc1CC(=O)OCC
active: all assays above

From ChEMBL document CHEMBL5505994, “Nur77 increases mitophagy and decreases aggregation of α-synuclein by modulating the p-c-Abl/p-PHB2 Y121 in α-synuclein PFF SH-SY5Y cells and mice” (Eur J Med Chem, 2024)
